From patent US11491132B2, “Methods for treating thrombocytopenia” (Enzychem Lifesciences Corporation, priority 2014, dated 2022)

Target: T1, STAT1 (Homo sapiens, UniProt P42224)
T1 sequence (P42224 1-750): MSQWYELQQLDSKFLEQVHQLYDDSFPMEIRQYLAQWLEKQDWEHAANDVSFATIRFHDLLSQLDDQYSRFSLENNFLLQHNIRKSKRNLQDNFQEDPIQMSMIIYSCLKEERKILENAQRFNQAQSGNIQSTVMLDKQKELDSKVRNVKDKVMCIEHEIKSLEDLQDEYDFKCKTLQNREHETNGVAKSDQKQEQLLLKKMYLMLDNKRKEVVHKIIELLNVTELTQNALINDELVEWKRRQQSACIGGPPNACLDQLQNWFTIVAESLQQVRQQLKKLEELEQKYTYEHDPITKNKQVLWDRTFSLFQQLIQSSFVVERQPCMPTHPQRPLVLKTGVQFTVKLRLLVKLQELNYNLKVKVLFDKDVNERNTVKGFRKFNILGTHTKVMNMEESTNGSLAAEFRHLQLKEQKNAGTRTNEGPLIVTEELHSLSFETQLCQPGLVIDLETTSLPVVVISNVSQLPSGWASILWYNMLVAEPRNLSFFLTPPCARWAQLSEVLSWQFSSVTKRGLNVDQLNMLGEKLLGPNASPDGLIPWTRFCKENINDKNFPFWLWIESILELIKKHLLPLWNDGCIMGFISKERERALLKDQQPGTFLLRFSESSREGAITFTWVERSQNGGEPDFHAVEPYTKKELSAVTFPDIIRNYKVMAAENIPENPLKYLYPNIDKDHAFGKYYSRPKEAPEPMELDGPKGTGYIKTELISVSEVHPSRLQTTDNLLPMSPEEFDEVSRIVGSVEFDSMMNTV
Experiment: Reporter assay for STAT1 transcriptional activity in HepG2 cells
Format: cell-based
Parameters: For the STAT1 assay, gene transfected HepG2 (human hepatocyte cell line) is treated with 10 ng of IFN-γ; endogenous in cells; host or cells: HepG2 (gene transfected)
Settings: gene transfected HepG2, 10 ng IFN-γ, PLAG 0.01-10 μg/ml, 12 hours incubation
Procedure: By using STAT6 inhibitor (S6I), it is confirmed that the reduction of Complement 3 in HepG2 cells (human hepatocyte cell line) is regulated by STAT6. […] It is also confirmed that PLAG has selective efficacy on STAT6 over STAT1. FIG. 1 presents graphs showing STAT1 and STAT6 transcriptional activity in the PLAG treated HepG2 cells. NC refers to the unstimulated control cell. For the STAT1 assay, gene transfected HepG2 (human hepatocyte cell line) is treated with 10 ng of IFN-γ and serially diluted PLAG is added (0.01 μg/ml, 0.1 μg/ml, 1 μg/ml, and 10 μg/ml as shown) to see its effect on gene expression in the stimulated cell. For the STAT6 assay, gene transfected HepG2 cells are treated with 10 ng of IL-4 and again serially diluted PLAG is added (0.01 μg/ml, 0.1 μg/ml, 1 μg/ml, and 10 μg/ml as shown) to see its effect on gene expression in the stimulated cell. The assay is carried out following 12 hours incubation of treated cells.

## CCCCC/C=C\C/C=C\CCCCCCCC(=O)OC(COC(C)=O)COC(=O)CCCCCCCCCCCCCCC (racemic) [PLAG, 1-palmitoyl-2-linoleoyl-3-acetylglycerol]
  STAT1 expression (transcriptional activity, reporter): no effect
